In patent publication US7772197B2, “1,3,5-triazines for treatment of viral diseases” (1,3,5-Triazines for Treatment of Viral Diseases, priority 2002, dated 2010):

Tests used:
HIV = assay: In vitro passaging assay of DHAdC; format: cell-based; settings: 100 nM, quadruplicate
Experimental: 0.1 ml of a 3×10^5 cells/ml MT-2 cell suspension were seeded in 96-well plates at 3×10^4 cells/well. The compounds to be assayed were diluted in a separate 96-well at ten times (10×) the concentration needed for the screen. […] This was followed by the addition of HIV-1 at an MOI of 0.01, except for the three wells serving as the uninfected control. 0.1 ml of cRPMI was added to the uninfected well instead of virus. After the addition of virus, the 96-well plate was centrifuged at 1,200×g for two hours to enhance the adsorption of the virus by the MT-2 cells (see, e.g., O'Doherty, J. Virol. 74:10074-10080 (2000)). After the centrifugation step, the 96-well plate was then incubated in a 37° C. incubator containing 5% CO2 for three days. At the end of this time period the virus and cells were mixed by gentle pipetting followed by a 1 minute spin at 600×g to pellet the cells. The supernatant of each well was then serially diluted 1,000-fold into new 96-well plates to serve as inoculum for the next passage and assayed by ELISA for the amount of p24 produced. The next passage was performed as described above, except that the virus used to infect the cells was derived from the 1,000-fold dilution plate. […]

polymerase-α = molecular target: T1, polymerase-α (Homo sapiens, UniProt P09884); assay: Substrate for cellular polymerase; format: biochemical; settings: data not shown
T1 sequence (P09884 1-1462): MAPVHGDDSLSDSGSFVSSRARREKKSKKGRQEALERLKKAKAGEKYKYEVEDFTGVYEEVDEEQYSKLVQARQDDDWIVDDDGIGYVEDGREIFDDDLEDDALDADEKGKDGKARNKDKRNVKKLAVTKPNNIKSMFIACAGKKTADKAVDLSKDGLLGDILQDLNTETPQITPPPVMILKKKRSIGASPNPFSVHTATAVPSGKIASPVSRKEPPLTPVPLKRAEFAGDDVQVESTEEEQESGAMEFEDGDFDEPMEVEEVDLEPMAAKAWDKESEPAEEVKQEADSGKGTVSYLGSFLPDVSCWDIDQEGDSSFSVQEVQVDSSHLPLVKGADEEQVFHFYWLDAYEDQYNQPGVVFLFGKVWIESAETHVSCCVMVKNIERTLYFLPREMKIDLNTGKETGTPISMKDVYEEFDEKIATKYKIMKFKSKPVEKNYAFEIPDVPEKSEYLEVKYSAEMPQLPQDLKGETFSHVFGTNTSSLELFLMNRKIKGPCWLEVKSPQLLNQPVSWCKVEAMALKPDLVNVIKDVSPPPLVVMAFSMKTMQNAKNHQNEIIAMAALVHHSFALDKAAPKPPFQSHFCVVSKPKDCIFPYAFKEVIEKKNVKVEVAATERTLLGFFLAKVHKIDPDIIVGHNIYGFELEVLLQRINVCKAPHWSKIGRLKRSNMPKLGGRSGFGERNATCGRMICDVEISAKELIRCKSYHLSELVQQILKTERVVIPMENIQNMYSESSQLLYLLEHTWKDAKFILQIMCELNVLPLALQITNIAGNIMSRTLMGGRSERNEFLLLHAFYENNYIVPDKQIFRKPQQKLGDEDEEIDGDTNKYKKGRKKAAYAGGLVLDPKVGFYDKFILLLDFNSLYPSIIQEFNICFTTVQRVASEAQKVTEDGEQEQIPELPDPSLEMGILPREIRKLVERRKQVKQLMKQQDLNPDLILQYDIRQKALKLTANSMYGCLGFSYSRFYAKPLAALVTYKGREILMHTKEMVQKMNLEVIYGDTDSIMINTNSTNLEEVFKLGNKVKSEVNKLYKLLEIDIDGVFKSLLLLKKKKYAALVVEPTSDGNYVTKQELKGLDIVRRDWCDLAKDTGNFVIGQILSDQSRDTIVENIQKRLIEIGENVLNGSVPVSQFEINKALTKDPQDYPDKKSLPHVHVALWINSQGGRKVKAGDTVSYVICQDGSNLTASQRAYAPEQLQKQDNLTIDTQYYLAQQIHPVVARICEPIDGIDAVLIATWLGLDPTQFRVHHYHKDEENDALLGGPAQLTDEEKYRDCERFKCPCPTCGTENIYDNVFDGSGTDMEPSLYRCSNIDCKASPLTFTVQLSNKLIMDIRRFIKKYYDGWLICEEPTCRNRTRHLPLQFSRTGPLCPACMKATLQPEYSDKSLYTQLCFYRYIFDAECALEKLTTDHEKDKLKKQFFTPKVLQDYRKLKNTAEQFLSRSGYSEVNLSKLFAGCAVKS

With NC1=NC(=O)N([C@H]2C[C@H](O)[C@@H](CO)O2)CN1 [DHAdC, 1-(2-Deoxy-β-D-ribofuranosyl)-4-amino-1,2,5,6-tetrahydro-1,3,5-triazin-2-one] the “passage after which no infectious virus was recovered” value (HIV) was 12 passage, the “passage by which p24 fell permanently below the limit of detection (4 ng/ml)” value (HIV) was at most 8 passage and the “substrate for polymerase-α” value (polymerase-α) was “poor substrate”.
